Reference: patent US10653672B2, “Myogenesis promotor, muscle atrophy inhibitor, medical composition and TAZ activator” (National University Corporation Tokyo Medical and Dental …, priority 2014, dated 2020)

Tested on: C2C12 cells
Assay: Evaluation of myogenesis of C2C12 cells by fusion index
Type: cell-based, mouse
Conditions: differentiation condition 72 hours, DMSO as 1, average of three
Experimental: (1) C2C12 cells were grown to confluence under growth condition, and then in differentiation condition for 72 hours, in a culture medium added with DMSO, IBS008738 (exemplary compound 1) or exemplary compounds 2 to 44, at a concentration of 1 μM, 3 μM or 10 μM, respectively. Thereafter, the degree of myogenesis was evaluated by a fusion index (a value obtained by dividing the number of nuclei detected in multinucleated myosin heavy chain (MHC)-positive cells by the total number of the nuclei). Specifically, exemplary compounds were divided into five groups, and DMSO and IBS008738 were evaluated in each group as controls. The evaluation was conducted three times, and the average value and the standard deviation of the fusion index was relativized with the measured value of DMSO as 1.
C2C12 cells were passaged in a growth medium (DMEM containing 10% FBS) and differentiated in a differentiation medium (DMEM containing 2% horse serum (Invitrogen)).

Q: With `Cc1ccc(-n2cnc(N)c2C(=O)c2ccccc2)cc1` [exemplary compound 2] as the compound, how does the “relative fusion index (FI)” value (Group 1, 1 μM) read?
A: 1.62

Q: And the “relative fusion index (FI)” value (Group 1, 3 μM)?
A: 2.26

Q: What about the “relative fusion index (FI)” value (Group 1, 10 μM) of the same compound?
A: 2.41

Q: How did the “relative fusion index (FI)” value (Group 1, 1 μM) turn out when `Cc1ccc(-n2cnc(/N=C/N3CCCCC3)c2C(=O)c2ccccc2)cc1` [exemplary compound 4] was run?
A: 1.02

Q: And the “relative fusion index (FI)” value (Group 1, 3 μM)?
A: 1.54

Q: What about the “relative fusion index (FI)” value (Group 1, 10 μM) of the same compound?
A: 1.51

Q: For `CC(=O)Nc1ncn(-c2ccc(C)cc2)c1C(=O)c1ccccc1` [exemplary compound 5], which “relative fusion index (FI)” value (Group 1, 1 μM) is on record?
A: 0.85

Q: And the “relative fusion index (FI)” value (Group 1, 3 μM)?
A: 1.50

Q: And the “relative fusion index (FI)” value (Group 1, 10 μM)?
A: 1.57

Q: What does the source list for `Cc1ccc(-n2cnc(/N=C/c3ccccc3)c2C(=O)c2ccccc2)cc1` [exemplary compound 6]?
A: relative fusion index (FI) (Group 1, 1 μM): 0.96; relative fusion index (FI) (Group 1, 3 μM): 1.78; relative fusion index (FI) (Group 1, 10 μM): 1.42

Q: What does the source list for `CCOC(=O)c1c(N)ncn1-c1ccc(C)cc1` [exemplary compound 7]?
A: relative fusion index (FI) (Group 1, 1 μM): 1.09; relative fusion index (FI) (Group 1, 3 μM): 1.55; relative fusion index (FI) (Group 1, 10 μM): 1.44

Q: `CCOC(=O)c1c(/N=C/N(C)C)ncn1-c1ccc(C)cc1` [exemplary compound 8] was tested. Which “relative fusion index (FI)” value (Group 1, 1 μM) did it give?
A: 0.93

Q: What about the “relative fusion index (FI)” value (Group 1, 3 μM) of the same compound?
A: 1.53

Q: And the “relative fusion index (FI)” value (Group 1, 10 μM)?
A: 1.05

Q: Which results are given for `CCOC(=O)c1c(/N=C/N2CCOCC2)ncn1-c1ccc(C)cc1` [exemplary compound 10]?
A: relative fusion index (FI) (Group 1, 1 μM): 0.80; relative fusion index (FI) (Group 1, 3 μM): 1.31; relative fusion index (FI) (Group 1, 10 μM): 0.85

Q: What does the source list for `CNc1ncn(-c2ccc(C)cc2)c1C(=O)c1ccccc1` [exemplary compound 12]?
A: relative fusion index (FI) (Group 2, 1 μM): 1.24; relative fusion index (FI) (Group 2, 3 μM): 1.43; relative fusion index (FI) (Group 2, 10 μM): 1.36

Q: `COc1ccc(-n2cnc(N)c2C(=O)c2ccccc2)cc1` [exemplary compound 13] was tested. Which “relative fusion index (FI)” value (Group 2, 1 μM) did it give?
A: 1.22

Q: What about the “relative fusion index (FI)” value (Group 2, 3 μM) of the same compound?
A: 1.32

Q: And the “relative fusion index (FI)” value (Group 2, 10 μM)?
A: 1.53

Q: For `COc1ccc(-n2cnc(/N=C/N(C)C)c2C(=O)c2ccccc2)cc1` [exemplary compound 14], which “relative fusion index (FI)” value (Group 2, 1 μM) is on record?
A: 1.18

Q: What about the “relative fusion index (FI)” value (Group 2, 3 μM) of the same compound?
A: 1.63

Q: And the “relative fusion index (FI)” value (Group 2, 10 μM)?
A: 1.72

Q: What does the source list for `COc1ccc(-n2cnc(/N=C/N3CCOCC3)c2C(=O)c2ccccc2)cc1` [exemplary compound 15]?
A: relative fusion index (FI) (Group 2, 1 μM): 1.20; relative fusion index (FI) (Group 2, 3 μM): 1.58; relative fusion index (FI) (Group 2, 10 μM): 1.58

Q: What does the source list for `Cc1ccc(-n2c(C)nc(N)c2C(=O)c2ccccc2)cc1` [exemplary compound 16]?
A: relative fusion index (FI) (Group 2, 1 μM): 1.06; relative fusion index (FI) (Group 2, 3 μM): 1.18; relative fusion index (FI) (Group 2, 10 μM): 1.60

Q: With `Nc1ncn(-c2ccc(Br)cc2)c1C(=O)c1ccccc1` [exemplary compound 17] as the compound, how does the “relative fusion index (FI)” value (Group 2, 1 μM) read?
A: 1.51

Q: What about the “relative fusion index (FI)” value (Group 2, 3 μM) of the same compound?
A: 2.14

Q: What about the “relative fusion index (FI)” value (Group 2, 10 μM) of the same compound?
A: 2.07

Q: Which results are given for `Cc1ccc(-n2cnc(N(C)C)c2C(=O)c2ccccc2)cc1` [exemplary compound 18]?
A: relative fusion index (FI) (Group 3, 1 μM): 1.34; relative fusion index (FI) (Group 3, 3 μM): 1.52; relative fusion index (FI) (Group 3, 10 μM): 1.85

Q: With `CN(C)/C=N/c1ncn(-c2ccc(Br)cc2)c1C(=O)c1ccccc1` [exemplary compound 19] as the compound, how does the “relative fusion index (FI)” value (Group 3, 1 μM) read?
A: 1.25

Q: What about the “relative fusion index (FI)” value (Group 3, 3 μM) of the same compound?
A: 1.57

Q: And the “relative fusion index (FI)” value (Group 3, 10 μM)?
A: 1.63

Q: Which results are given for `O=C(c1ccccc1)c1c(/N=C/N2CCOCC2)ncn1-c1ccc(Br)cc1` [exemplary compound 20]?
A: relative fusion index (FI) (Group 3, 1 μM): 1.26; relative fusion index (FI) (Group 3, 3 μM): 1.41; relative fusion index (FI) (Group 3, 10 μM): 1.60

Q: For `CC(=O)c1c(/N=C/N(C)C)ncn1-c1ccc(C)cc1` [exemplary compound 25], which “relative fusion index (FI)” value (Group 3, 1 μM) is on record?
A: 0.96

Q: What about the “relative fusion index (FI)” value (Group 3, 3 μM) of the same compound?
A: 1.22

Q: What about the “relative fusion index (FI)” value (Group 3, 10 μM) of the same compound?
A: 1.44

Q: For `Cc1ccc(-n2cnc(N)c2C#N)cc1` [exemplary compound 26], which “relative fusion index (FI)” value (Group 3, 1 μM) is on record?
A: 1.01

Q: And the “relative fusion index (FI)” value (Group 3, 3 μM)?
A: 1.09

Q: And the “relative fusion index (FI)” value (Group 3, 10 μM)?
A: 1.44

Q: `CC(C)(C)OC(=O)NCCc1ccc(-n2cnc(N)c2C(=O)c2ccccc2)cc1` [exemplary compound 27] was tested. Which “relative fusion index (FI)” value (Group 4, 1 μM) did it give?
A: 0.97

Q: And the “relative fusion index (FI)” value (Group 4, 3 μM)?
A: 1.67

Q: What about the “relative fusion index (FI)” value (Group 4, 10 μM) of the same compound?
A: 1.98

Q: How did the “relative fusion index (FI)” value (Group 4, 1 μM) turn out when `NCCc1ccc(-n2cnc(N)c2C(=O)c2ccccc2)cc1` [exemplary compound 28] was run?
A: 1.21

Q: What about the “relative fusion index (FI)” value (Group 4, 3 μM) of the same compound?
A: 1.42

Q: And the “relative fusion index (FI)” value (Group 4, 10 μM)?
A: 1.64

Q: Which “relative fusion index (FI)” value (Group 4, 1 μM) does the source give for `N#CCc1ccc(-n2cnc(N)c2C(=O)c2ccccc2)cc1` [exemplary compound 29] here?
A: 1.25

Q: And the “relative fusion index (FI)” value (Group 4, 3 μM)?
A: 1.49

Q: What about the “relative fusion index (FI)” value (Group 4, 10 μM) of the same compound?
A: 1.61

Q: Which “relative fusion index (FI)” value (Group 4, 1 μM) does the source give for `COc1ccc(C(=O)c2c(N)ncn2-c2ccc(C)cc2)cc1` [exemplary compound 30] here?
A: 1.27

Q: And the “relative fusion index (FI)” value (Group 4, 3 μM)?
A: 1.52

Q: And the “relative fusion index (FI)” value (Group 4, 10 μM)?
A: 1.54

Q: With `Cc1ccc(-n2cnc(N)c2C(=O)c2cccc(Cl)c2)cc1` [exemplary compound 31] as the compound, how does the “relative fusion index (FI)” value (Group 4, 1 μM) read?
A: 1.12

Q: What about the “relative fusion index (FI)” value (Group 4, 3 μM) of the same compound?
A: 1.15

Q: And the “relative fusion index (FI)” value (Group 4, 10 μM)?
A: 1.40

Q: For `Cc1ccc(-n2cnc(N)c2C(=O)c2ccc(Cl)cc2)cc1` [exemplary compound 32], which “relative fusion index (FI)” value (Group 4, 1 μM) is on record?
A: 1.16

Q: And the “relative fusion index (FI)” value (Group 4, 3 μM)?
A: 1.47

Q: What about the “relative fusion index (FI)” value (Group 4, 10 μM) of the same compound?
A: 1.60

Q: `Cc1ccc(-n2cnc(N)c2C(=O)c2ccc([N+](=O)[O-])cc2)cc1` [exemplary compound 33] was tested. Which “relative fusion index (FI)” value (Group 4, 1 μM) did it give?
A: 0.91

Q: What about the “relative fusion index (FI)” value (Group 4, 3 μM) of the same compound?
A: 1.20

Q: What about the “relative fusion index (FI)” value (Group 4, 10 μM) of the same compound?
A: 1.23

Q: For `Cc1ccc(-n2cnc(N)c2C(=O)c2ccc(F)cc2)cc1` [exemplary compound 34], which “relative fusion index (FI)” value (Group 4, 1 μM) is on record?
A: 1.38

Q: What about the “relative fusion index (FI)” value (Group 4, 3 μM) of the same compound?
A: 1.33

Q: And the “relative fusion index (FI)” value (Group 4, 10 μM)?
A: 1.49

Q: Which results are given for `Nc1ncn(-c2ccc(Cl)cc2Cl)c1C(=O)c1ccccc1` [exemplary compound 35]?
A: relative fusion index (FI) (Group 4, 1 μM): 1.27; relative fusion index (FI) (Group 4, 3 μM): 1.60; relative fusion index (FI) (Group 4, 10 μM): 1.55

Q: How did the “relative fusion index (FI)” value (Group 4, 1 μM) turn out when `Cc1ccc(-n2cnc(N)c2C(=O)c2ccc(Br)cc2)cc1` [exemplary compound 36] was run?
A: 1.12

Q: What about the “relative fusion index (FI)” value (Group 4, 3 μM) of the same compound?
A: 1.57

Q: What about the “relative fusion index (FI)” value (Group 4, 10 μM) of the same compound?
A: 1.59

Q: `Cc1ccc(-n2cnc(N)c2C(=O)C23CC4CC(CC(C4)C2)C3)cc1` [exemplary compound 37] was tested. Which “relative fusion index (FI)” value (Group 4, 1 μM) did it give?
A: 1.39

Q: What about the “relative fusion index (FI)” value (Group 4, 3 μM) of the same compound?
A: 1.47

Q: What about the “relative fusion index (FI)” value (Group 4, 10 μM) of the same compound?
A: 1.77

Q: What does the source list for `Nc1ncn(-c2ccccn2)c1C(=O)c1ccccc1` [exemplary compound 38]?
A: relative fusion index (FI) (Group 5, 1 μM): 1.08; relative fusion index (FI) (Group 5, 3 μM): 1.12; relative fusion index (FI) (Group 5, 10 μM): 1.15

Q: `N#Cc1ccc(-n2cnc(N)c2C(=O)c2ccccc2)cc1` [exemplary compound 39] was tested. Which “relative fusion index (FI)” value (Group 5, 1 μM) did it give?
A: 1.04

Q: What about the “relative fusion index (FI)” value (Group 5, 3 μM) of the same compound?
A: 1.10

Q: What about the “relative fusion index (FI)” value (Group 5, 10 μM) of the same compound?
A: 1.09

Q: For `CCOC(=O)c1c(N)ncn1-c1ccccc1C` [exemplary compound 40], which “relative fusion index (FI)” value (Group 5, 1 μM) is on record?
A: 1.12

Q: What about the “relative fusion index (FI)” value (Group 5, 3 μM) of the same compound?
A: 1.15

Q: And the “relative fusion index (FI)” value (Group 5, 10 μM)?
A: 1.10

Q: For `CC(=O)c1c(N)ncn1-c1ccccc1C` [exemplary compound 41], which “relative fusion index (FI)” value (Group 5, 1 μM) is on record?
A: 1.14

Q: And the “relative fusion index (FI)” value (Group 5, 3 μM)?
A: 1.06

Q: What about the “relative fusion index (FI)” value (Group 5, 10 μM) of the same compound?
A: 1.11

Q: For `Cc1ccccc1-n1cnc(N)c1C(=O)C12CC3CC(CC(C3)C1)C2` [exemplary compound 42], which “relative fusion index (FI)” value (Group 5, 1 μM) is on record?
A: 1.08

Q: And the “relative fusion index (FI)” value (Group 5, 3 μM)?
A: 1.03

Q: And the “relative fusion index (FI)” value (Group 5, 10 μM)?
A: 1.10

Q: Which results are given for `Cc1ccc(-n2cnc(N)c2C(=O)c2ccccc2)c(C)c1` [exemplary compound 43]?
A: relative fusion index (FI) (Group 5, 1 μM): 1.07; relative fusion index (FI) (Group 5, 3 μM): 1.11; relative fusion index (FI) (Group 5, 10 μM): 1.12
